In ChEMBL document CHEMBL1201862, “PubChem BioAssay data set” (2004):
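Each compound was tested at five concentrations against cells in 96-well plates for 48 hours. GI50 is the concentration that inhibits growth by half.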 Active and inactive are the calls of the source. Rule as the data show it: active = GI50 up to about 1.1 µM and inactive = higher.

Tests used:
Experiment in all cases: inhibition of tumour cell growth, NCI panel, 48 h
HT-29 = system: HT-29
HCC 2998 = system: HCC 2998
HL-60 = system: HL-60
EKVX = system: EKVX
OVCAR-3 = system: OVCAR-3
UACC-257 = system: UACC-257
A498 = system: A498
IGROV-1 = system: IGROV-1
SNB-78 = system: SNB-78
SNB-19 = system: SNB-19
NCI-H23 = system: NCI-H23
NCI-H460 = system: NCI-H460
NCI-H522 = system: NCI-H522
HOP-62 = system: HOP-62
SK-OV-3 = system: SK-OV-3
M14 = system: M14
MDA-MB-231 = system: MDA-MB-231
Hs-578T = system: Hs-578T
DU-145 = system: DU-145
PC-3 = system: PC-3

Structure (SMILES) | GI50 (HT-29) | GI50 (HCC 2998) | GI50 (HL-60) | GI50 (EKVX) | GI50 (OVCAR-3) | GI50 (UACC-257) | GI50 (A498) | GI50 (IGROV-1) | GI50 (SNB-78) | GI50 (SNB-19) | GI50 (NCI-H23) | GI50 (NCI-H460) | GI50 (NCI-H522) | GI50 (HOP-62) | GI50 (SK-OV-3) | GI50 (M14) | GI50 (MDA-MB-231) | GI50 (Hs-578T) | GI50 (DU-145) | GI50 (PC-3)
COc1ccc(/N=N/c2c(-c3ccccc3)nn(C(=O)CC(=O)Nc3ccc(OC)cc3)c2-c2ccccc2)cc1 | > 100 µM (inactive) | > 100 µM (inactive) | > 100 µM (inactive) | 71.1 µM (inactive) | > 100 µM (inactive) | > 100 µM (inactive) | 33.2 µM (inactive) | 39.9 µM (inactive) | 34.6 µM (inactive) | 29.9 µM (inactive) | 33 µM (inactive) | > 100 µM (inactive) | 61.5 µM (inactive) | 23.4 µM (inactive) | 40.6 µM (inactive) | – | – | – | – | –
COc1ccc2oc(C(=O)O)c3c2c1CCC3 | > 100 µM (inactive) | > 100 µM (inactive) | > 100 µM (inactive) | > 100 µM (inactive) | > 100 µM (inactive) | > 100 µM (inactive) | > 100 µM (inactive) | > 100 µM (inactive) | > 100 µM (inactive) | > 100 µM (inactive) | > 100 µM (inactive) | > 100 µM (inactive) | – | > 100 µM (inactive) | > 100 µM (inactive) | > 100 µM (inactive) | – | – | – | –
O=c1[nH]c2cc([N+](=O)[O-])ccc2nc1/C(=N\NO)C(O)c1ccc([N+](=O)[O-])cc1 (centres undefined) | > 100 µM (inactive) | > 100 µM (inactive) | 79.4 µM (inactive) | – | > 100 µM (inactive) | > 100 µM (inactive) | – | > 100 µM (inactive) | > 100 µM (inactive) | > 100 µM (inactive) | > 100 µM (inactive) | > 100 µM (inactive) | 44.7 µM (inactive) | > 100 µM (inactive) | > 100 µM (inactive) | > 100 µM (inactive) | – | – | – | –
NC(=O)CCC(Nc1c2ccccc2[n+]([O-])c2ccccc12)C(=O)O (centres undefined) | – | > 100 µM (inactive) | 11.1 µM (inactive) | > 100 µM (inactive) | 60.1 µM (inactive) | – | > 100 µM (inactive) | > 100 µM (inactive) | > 100 µM (inactive) | 77.1 µM (inactive) | 35.6 µM (inactive) | 80 µM (inactive) | 29.9 µM (inactive) | > 100 µM (inactive) | > 100 µM (inactive) | > 100 µM (inactive) | – | – | – | –
C/C=C/C=C\C(=O)C1c2cccc(O)c2C(=O)c2c(O)cc(C)cc21 (centres undefined) | 2.06 µM (inactive) | 0.306 µM (active) | 0.294 µM (active) | 3.38 µM (inactive) | 1.02 µM (active) | 1.83 µM (inactive) | 2.74 µM (inactive) | 1.57 µM (inactive) | 1.65 µM (inactive) | 0.442 µM (active) | 1.76 µM (inactive) | 0.406 µM (active) | 1.66 µM (inactive) | 2.04 µM (inactive) | 1.43 µM (inactive) | – | – | – | – | –
O=C1c2ccccc2CC1C1(O)C(=O)Nc2ccccc21 (centres undefined) | > 100 µM (inactive) | – | > 100 µM (inactive) | > 100 µM (inactive) | > 100 µM (inactive) | > 100 µM (inactive) | > 100 µM (inactive) | > 100 µM (inactive) | > 100 µM (inactive) | > 100 µM (inactive) | > 100 µM (inactive) | > 100 µM (inactive) | > 100 µM (inactive) | > 100 µM (inactive) | > 100 µM (inactive) | > 100 µM (inactive) | – | – | – | –
COc1cc(/C=C2\Cc3ccccc3C2=O)cc(OC)c1OC | > 100 µM (inactive) | > 100 µM (inactive) | > 100 µM (inactive) | > 100 µM (inactive) | > 100 µM (inactive) | > 100 µM (inactive) | – | – | > 100 µM (inactive) | > 100 µM (inactive) | > 100 µM (inactive) | > 100 µM (inactive) | > 100 µM (inactive) | > 100 µM (inactive) | > 100 µM (inactive) | > 100 µM (inactive) | – | – | – | –
C1=Cc2nc1c(-c1ccccc1)c1ccc([n-]1)c(-c1ccccc1)c1nc(c(-c3ccccc3)c3ccc([n-]3)c2-c2ccccc2)C=C1.[Zn+2] | > 100 µM (inactive) | > 100 µM (inactive) | 45 µM (inactive) | > 100 µM (inactive) | > 100 µM (inactive) | > 100 µM (inactive) | – | > 100 µM (inactive) | > 100 µM (inactive) | > 100 µM (inactive) | > 100 µM (inactive) | > 100 µM (inactive) | > 100 µM (inactive) | 19.9 µM (inactive) | > 100 µM (inactive) | > 100 µM (inactive) | – | – | – | –
O=C(O)c1cc(C(=O)O)cc(N2C(=O)c3ccccc3C2=O)c1 | > 100 µM (inactive) | > 100 µM (inactive) | > 100 µM (inactive) | > 100 µM (inactive) | > 100 µM (inactive) | > 100 µM (inactive) | > 100 µM (inactive) | > 100 µM (inactive) | – | > 100 µM (inactive) | > 100 µM (inactive) | > 100 µM (inactive) | > 100 µM (inactive) | > 100 µM (inactive) | > 100 µM (inactive) | > 100 µM (inactive) | > 100 µM (inactive) | > 100 µM (inactive) | > 100 µM (inactive) | > 100 µM (inactive)
COc1ccc(C(CC2(c3ccc(OC)cc3)SCCCS2)NC(C)=O)cc1 (centres undefined) | 65.2 µM (inactive) | 42.6 µM (inactive) | 18.7 µM (inactive) | 52.8 µM (inactive) | 45.6 µM (inactive) | 26.2 µM (inactive) | 90.6 µM (inactive) | > 100 µM (inactive) | – | 99.1 µM (inactive) | 29.4 µM (inactive) | 40.7 µM (inactive) | 29.2 µM (inactive) | 47.1 µM (inactive) | 40.8 µM (inactive) | 94 µM (inactive) | > 100 µM (inactive) | 86.7 µM (inactive) | 44.6 µM (inactive) | 23.8 µM (inactive)
O=C(O)CCSC(=O)Nc1ccccc1F | > 100 µM (inactive) | > 100 µM (inactive) | > 100 µM (inactive) | > 100 µM (inactive) | > 100 µM (inactive) | – | > 100 µM (inactive) | – | > 100 µM (inactive) | > 100 µM (inactive) | > 100 µM (inactive) | > 100 µM (inactive) | > 100 µM (inactive) | > 100 µM (inactive) | – | > 100 µM (inactive) | – | – | – | –
CCOC(=O)C(c1c[nH]c2ccccc12)(c1c[nH]c2ccccc12)c1c[nH]c2ccccc12 | 34.4 µM (inactive) | 17.1 µM (inactive) | 15.9 µM (inactive) | 37.7 µM (inactive) | 27.5 µM (inactive) | 34 µM (inactive) | 35.2 µM (inactive) | 33.3 µM (inactive) | – | 26.5 µM (inactive) | 70.8 µM (inactive) | 27.3 µM (inactive) | 27 µM (inactive) | 39.6 µM (inactive) | 30.1 µM (inactive) | 28.3 µM (inactive) | 36.8 µM (inactive) | 23.7 µM (inactive) | 39.8 µM (inactive) | 19.7 µM (inactive)
CCCCCCCCC1C(C)c2c([nH]c3ccccc23)C2C(=O)N(c3ccccc3)C(=O)C21 (centres undefined) | 4.7 µM (inactive) | 12.5 µM (inactive) | 3.27 µM (inactive) | 21.1 µM (inactive) | 5.08 µM (inactive) | > 10 µM (inactive) | 21.1 µM (inactive) | 17.6 µM (inactive) | 9.62 µM (inactive) | – | 3.73 µM (inactive) | 3.82 µM (inactive) | – | 21 µM (inactive) | 28.7 µM (inactive) | 14 µM (inactive) | – | – | – | –
CCOP(=O)(O)C(C)(C)NC | > 100 µM (inactive) | > 100 µM (inactive) | > 100 µM (inactive) | > 100 µM (inactive) | > 100 µM (inactive) | > 100 µM (inactive) | > 100 µM (inactive) | > 100 µM (inactive) | – | > 100 µM (inactive) | > 100 µM (inactive) | > 100 µM (inactive) | > 100 µM (inactive) | > 100 µM (inactive) | > 100 µM (inactive) | > 100 µM (inactive) | > 100 µM (inactive) | > 100 µM (inactive) | > 100 µM (inactive) | > 100 µM (inactive)
O=S(=O)(O)c1cc(S(=O)(=O)O)c2cc(/N=N/c3ccc(/N=N/c4ccc(/C=C/c5ccc(/N=[N+](/[O-])c6ccc(/C=C/c7ccc(/N=N/c8ccc(/N=N/c9ccc%10cc(S(=O)(=O)O)cc(S(=O)(=O)O)c%10c9)cc8)cc7S(=O)(=O)O)c(S(=O)(=O)O)c6)cc5S(=O)(=O)O)c(S(=O)(=O)O)c4)cc3)ccc2c1 | > 55.1 µM (inactive) | > 61.2 µM (inactive) | 54.1 µM (inactive) | 82.6 µM (inactive) | > 31.6 µM (inactive) | > 60.3 µM (inactive) | > 100 µM (inactive) | > 100 µM (inactive) | 53.5 µM (inactive) | 25.9 µM (inactive) | > 77.8 µM (inactive) | > 40.3 µM (inactive) | > 55.8 µM (inactive) | > 100 µM (inactive) | > 22.3 µM (inactive) | – | – | – | – | –
NC(=O)c1cc2ccc(O)cc2o/c1=N/c1ccccc1 | 33 µM (inactive) | 22.2 µM (inactive) | 25.1 µM (inactive) | 31.1 µM (inactive) | 35.2 µM (inactive) | 39.3 µM (inactive) | 16.3 µM (inactive) | 26.5 µM (inactive) | – | 36 µM (inactive) | 18.1 µM (inactive) | 25.9 µM (inactive) | 17.8 µM (inactive) | 40.7 µM (inactive) | 34.5 µM (inactive) | 29.5 µM (inactive) | 67.8 µM (inactive) | 64.3 µM (inactive) | 43.2 µM (inactive) | 37.7 µM (inactive)
